Experiment in all cases: NCI-60 cell line screen, 48 h
In experiment [1] the test system is CAKI-1 renal.
Experiment [2] concerns COLO 205 colon.
For experiment [3], the system named is HCC-2998 colon.
The subject of experiment [4] is KM12 colon.
Experiment [5] concerns LOX IMVI melanoma.
The subject of experiment [6] is MALME-3M melanoma.
Experiment [7] has as its system SK-MEL-28 melanoma.
In experiment [8] the test system is SR leukemia.
Experiment [9] deals with UO-31 renal.
In experiment [10] the test system is OVCAR-5 ovarian.

Values joined by “and” are separate entries in the source; they are usually repeats but may differ in a detail not shown here. Equal entries are not always repeated.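 Test compounds were applied to cells in 96-well plates for 48 hours at 5 doses. GI50 marks 50% less growth. At the TGI there is no net growth.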 Some results are limits rather than exact numbers.

On to `CCC12CCCN(Cc3ccccc3)C1c1c(n(C)c3ccccc13)CC2` (configuration not stated), for which the TGI in experiment [1], in experiment [2], in experiment [3], in experiment [4], in experiment [5] and in experiment [6] was over 253 µM throughout. The TGI in [7] and in [8] was over 253 µM each time.
Consider `Nc1nc(Cl)cc(NCCCCCCCCNc2cc(Cl)nc(N)n2)n1`, for which the TGI in [1] was 44.7 µM; in [2], over 100 µM; in experiment [3], over 100 µM; in [4] it was 56.9 µM; in [5], 34.7 µM; in experiment [7], over 100 µM. Further, the TGI in experiment [8] is 96.8 µM; in experiment [9] it was over 100 µM.
As to `CC(=O)CCn1ncc(Cl)c(Cl)c1=O`, the TGI in experiment [1] came out at 3.66 µM; in experiment [3] it was 21.9 µM; in [4], 41.5 µM; in [5], 30.5 µM; in experiment [6], 36.2 µM; in experiment [10], 33.2 µM. In addition, the TGI in [7] is 27.2 µM; in experiment [8], 31.5 µM; in experiment [9], 34.6 µM.
In the case of `Cc1ccc(SC2c3ccc(C)cc3Oc3nc(N)c(C#N)c(N)c32)cc1` (configuration not stated), the GI50 in [2] is 1.71 µM; in experiment [3], 1.8 µM; in [4], 2.36 µM; in experiment [5], 1.59 µM; in [6], 1.77 µM; in experiment [10], 1.76 µM. In addition, the GI50 was 1.83 µM in [7], 2.16 µM in experiment [8] and 1.18 µM in experiment [9]. The TGI in [2] is 3.32 µM; in experiment [3], 3.46 µM; in experiment [4], 6.6 µM; in experiment [5], 3.14 µM; in experiment [6], 3.6 µM; in experiment [10] it was 3.45 µM. Further, the TGI in experiment [7] came out at 3.35 µM; in [8] it was 5.54 µM; in experiment [9], 2.49 µM.
As for `Nc1ccc([N+](=O)[O-])cc1N=C/C=C/c1ccccc1`, the GI50 in [2] was 23 µM; in experiment [3], 30.1 µM; in experiment [4], 3.87 µM; in experiment [5], 3.98 µM; in experiment [6], 25.1 µM; in [10], 81.2 µM. In addition, the GI50 in [7] is 29.7 µM; in experiment [8], 3.48 µM; in experiment [9], 4.31 µM. In addition, the TGI in experiment [2] was over 100 µM; in experiment [3], over 100 µM; in experiment [4] it was 51.2 µM; in [5], 80.7 µM; in experiment [6] it was over 100 µM; in experiment [10], over 100 µM. For the same compound, the TGI was over 100 µM in experiment [7], over 100 µM in experiment [8] and 71.4 µM in experiment [9].
In the case of `O=C(Nc1ccn(CCO)c(=O)n1)c1ccccc1`, the TGI in [1], in experiment [2], in experiment [4], in experiment [5], in experiment [6] and in experiment [10] was over 100 µM throughout. For the same compound, the TGI in [7], in [8] and in [9] was over 100 µM each time.
As to `[N-]=[N+]=NC1(Cc2ccccc2)C(=O)c2cccc3c2N(CCC3)C1=O` (configuration not stated), the TGI in experiment [1], in experiment [2], in [4], in [5], in [6] and in experiment [10] was over 100 µM throughout. Also, the TGI in experiment [7], in [8] and in [9] was over 100 µM in each case.
Take `CCOC(=O)c1cnc2c(ccc3[nH]n(C)nc32)c1=O`: the TGI in experiment [1], in experiment [2], in experiment [3], in experiment [4], in experiment [6] and in [10] was over 100 µM throughout. Moreover, the TGI in [7], in experiment [8] and in [9] was over 100 µM each time.
`Clc1ccc2c(c1)[nH]c1c2nc2ccccn21`: the TGI in experiment [3] is 63.3 µM and 13.8 µM; in [4], 35.7 µM and 32 µM; in experiment [6], > 100 µM and 35.7 µM; in [10] it was > 100 µM and 30.1 µM; in [7], 62.4 µM and 31.3 µM; in experiment [8] it was over 100 µM. In [9], the TGI was 53.7 µM and 37.5 µM. In addition, the GI50 in experiment [6] is > 100 µM and 17.5 µM; in experiment [10], 38.8 µM and 16.5 µM.
With `Cc1ccc(S(=O)(=O)N(C=O)N=C2CCN(Cc3ccccc3)CC2)cc1`, the TGI in [1], in [2], in experiment [3], in experiment [4], in experiment [5] and in experiment [6] was over 100 µM in each case. For the same compound, the TGI in experiment [10], in experiment [8] and in [9] was over 100 µM each time.
On to `CC(C)CCC1CC2C(=O)N(c3ccccc3)C(=O)C2c2[nH]c3ccccc3c21` (configuration not stated), for which the TGI in [2] turned out to be 7.08 µM; in experiment [3], 11.2 µM; in experiment [4], 14.8 µM; in experiment [5] it was 14.6 µM; in [6] it was 15.1 µM; in experiment [10], 31.4 µM. The TGI in experiment [7] was determined as 20 µM; in experiment [8], 23.9 µM; in experiment [9] it was 18.9 µM.
In the case of `O=[N+]([O-])c1cccc(C2=NN(c3ccccc3)C[N+](c3ccc(Br)cc3)=N2)c1`, the TGI in experiment [1], in experiment [2], in experiment [3], in experiment [4], in experiment [6] and in [10] was over 100 µM each time. Besides, the TGI is over 100 µM in experiment [7], 16.9 µM in [8] and over 100 µM in [9].
Consider `CC(C)C1=CC23CCC4C(C)(C(=O)O)CCCC4(C)C2CC1C1C(=O)N(c2ccc(Cc4ccc(N5C(=O)C6C7CC8C9(C)CCCC(C)(C(=O)O)C9CCC8(C=C7C(C)C)C6C5=O)cc4)cc2)C(=O)C13` (configuration not stated), for which the TGI was 26.4 µM in experiment [2]; 21.7 µM in [3]; 20.2 µM in experiment [4]; 30.4 µM in experiment [6]; 35.8 µM in experiment [10]; 24.9 µM in [7]. In addition, the TGI stood at 28 µM in experiment [8] and 31.3 µM in experiment [9].
